Data on 1 molecule can be found in US7829533B2, “Cyclosporin analog formulations” (Isotechnika Inc., priority 2001, dated 2010).

The nature of the data set: Toxicokinetic study in the rabbit model (serum creatinine, hematology, organ examination).

Procedure: On Days 1 and 7, blood samples were collected prior to drug administration and at 0.5, 1, 2, 4, 8, 12, 18, and 24 hours post-dose to generate a pharmacokinetic profile. Other evaluated parameters included clinical observations, body weight, food consumption, hematology, clinical chemistry, gross pathology, and histopathological examination of selected tissues/organs.

Turning to `C=C/C=C/C[C@@H](C)[C@@H](O)[C@H]1C(=O)N[C@@H](CC)C(=O)N(C)CC(=O)N(C)[C@@H](CC(C)C)C(=O)N[C@@H](C(C)C)C(=O)N(C)[C@@H](CC(C)C)C(=O)N[C@@H](C)C(=O)N[C@H](C)C(=O)N(C)[C@@H](CC(C)C)C(=O)N(C)[C@@H](CC(C)C)C(=O)N(C)[C@@H](C(C)C)C(=O)N1C` [ISATX247], for the setting “male rabbits, 15 mg/kg”, the “Examination of organs: spermatogenesis” value was “decrease in spermatogenesis”. Besides, the Examination of organs result reads like this: (rabbits, 5 mg/kg) “no significant abnormalities”; (rabbits, 10 mg/kg) “no significant abnormalities”. In addition, under “rabbits, 10 mg/kg cyclosporine A, 5 or 10 mg/kg ISATx247”, the “Interstitial fibrosis in the kidneys” value is listed as “no evidence of interstitial fibrosis”. For the setting “rabbits, 15 mg/kg/day”, the “Increase in serum creatinine levels” value is listed as “did not result in any significant increase”. The “Changes in hematological parameters” value (rabbits, 30-day study) was “No significant changes”.
